Assay results published in US5783449A (priority 1996, dated 1998).

Legend:
[1] = clinical; conditions: in vivo
From the text: Even though ethanol elimination begins at very outset of consumption, formally the process breaks out from an apex into a pharmacokinetical curve--the break point of a neutralizing reaction against extreme absorption-distribution action.
AUCabs-distr is the absorption-distribution of ethanol and is equal to the AUC under the ascending part of the curve;
AUCpostabs +AUCdistr is a sum of the postabsorption and distribution of ethanol and is equal to the AUC between the ascending and descending part of the plotted curve. Because most pharmacokinetical cases have a triangle-like shape for the curve, it obviously has no value. However, if the value occurs (in a case with a trapezium-like shape for the curve) it disregards from calculation, because proportional representation for this internal rectangular-like composite AUC is the same as the Index-K value;
and AUCelim is the elimination of ethanol and is equal to the AUC under the descending part of the pharmacokinetical curve.
(§1) To verify the results, after ethanol consumption, BAC levels were repeatedly measured by INTOXIMETER EC/IR 3000, until two successive zero BAC measurements were obtained. […] A special electrochemical membrane measured oxidation by transdermal ethanol. The resulting current measured is expressed in micro Amperes (μA) and was automatically multiplied by 35 for TAS#37; by 40 for TAS#34, TAS#39, or by 45 for TAS#33 depending on type of construction for the device.
BAC tests were conducted on 83 volunteer individuals, 48 of whom were non-alcoholic males, 27 of whom were non-alcoholic females and 8 of whom were alcoholic males.
This dose was divided into three equal parts.
(§2) The BAC readings used in tables 1 and 2 were obtained using breath samples taken with the INTOXIMETER EC/IR 3000 made by Intoximeters, Inc. of St. Louis, Mo. This device has a rated accuracy of ±0.001 (1 mg/dl). The machine was reprogrammed to increase ethanol values by five percent from factory settings to more accurately reflect actual BAC.

[2] = in vivo
Protocol: as §2

[3] = in vivo; remark: listed apart in the source
From the text: as §1

[4] = system: Microsomal Ethanol-Oxidation System (MEOS); conditions: human body; stated as well known; cited from earlier work

CCO [alcohol, ethanol]
Time to peak ([1]; human, po): 66 '
peak in the BAC ([1]; human, po): 68.2 (s.d.=8.98)
Cmax ([1]; human, po, peak in the BAC): 697 µg/mL
ratio of Index-K between alcoholic and non-alcoholic drinkers [1]: about twice
blood/breath ratio [2]: 0.994
Index-K (range over methods) [3]: 1.9-1.97
variation in the amplitude of the curves [3]: 2.7 fold
variation of the elimination time [3]: 1.9 fold
variation of the time to peak [3]: 1.7 fold
fraction of consumed alcohol destroyed by MEOS [4]: approximately one-fifth
